Test results: patent publication US9144241B2, “Synergistic pesticidal compositions and related methods” (Dow AgroSciences LLC, priority 2013, dated 2015)

Tested on: diamondback moth, Plutella xylostella
Test: Diamondback moth bioassay on track-sprayed cabbage plants/leaf discs; synergy by Colby's equation
Type: in vivo
Conditions: single active, second instar larvae, 400 L/Ha spray
Text: The method described in Colby S. R., “Calculating Synergistic and Antagonistic Responses of Herbicide Combinations,” Weeds, 1967, 15, 20-22 was used to determine an existence of synergic effect between the acetyl CoA carboxylase inhibitor compound and the pesticide (I), (II), or any agriculturally acceptable salt thereof in the formulated pesticidal composition.
Three second instar diamondback moth, Plutella xylostella, were infested onto each leaf disc. […] The “Colby's Expected Action” was calculated using Colby's equation as discussed previously.
Three second instar diamondback moth, Plutella xylostella, were infested onto each leaf disc.
The percent control may be determined some time after treatment.

Structure (SMILES)	% Control Three Days After Treatment (dose rate 0.000625 weight %) [%]	% Control Three Days After Treatment (dose rate 0.0025 weight %)	% Control Three Days After Treatment (dose rate 0.0015625 weight %) [%]	% Control Three Days After Treatment (dose rate 0.0015625 weight %, listed as spirotetramat)
CCN(C(=O)CCSCCC(F)(F)F)c1cn(-c2cccnc2)nc1Cl [Compound I, N-(3-chloro-1-(pyridin-3-yl)-1H-pyrazol-4-yl)-N-ethyl-3-((3,3,3-trifluoropropyl)thio) propanamide]	0	no activity		
CCN(C(=O)CC[S+]([O-])CCC(F)(F)F)c1cn(-c2cccnc2)nc1Cl (centres unmarked) [Compound II, N-(3-chloro-1-(pyridin-3-yl)-1H-pyrazol-4-yl)-N-ethyl-3-((3,3,3-trifluoropropyl)sulfinyl)propanamide]	0			
CCOC(=O)OC1=C(c2cc(C)ccc2C)C(=O)N[C@]12CC[C@@H](OC)CC2 [Spirotetramat, cis-3-(2,5-dimethylphenyl)-8-methoxy-2-oxo-1-azaspiro[4.5]dec-3-en-4-yl ethylcarbonate, reference compound]			0	no activity
